Results as given in patent US20040132755A1, “Isoxazoles and uses thereof” (priority 2002, published 2004).

Tested on: LPS-induced tumor necrosis factor-α (TNF-α) production in mixed glial cells
Test: In vitro CNS inflammation assay
Assay type: cell-based
Conditions: Rattus norvegicus, Glial cell, 6 h, LPS 50 ng/ml, TNF-α ELISA
Experimental: This protocol describes the procedure used to induce experimental inflammation by lipopolysacchride (LPS) in cultured CNS mixed glial cells. The anti-inflammatory effect of test compounds was evaluated against LPS-induced tumor necrosis factor-α (TNF-α) production in mixed glial cells.
The following steps were performed the day of the assay:
The mixed glial cells (7 days from initial culture) were replenished with mixed glial culture media consist of 50:50:10:1 combination of DMEM (high glucose: Invitrogen Corp), F-12 (Invitrogen Corp), 100% fetal bovine serum and 100×N-2 supplement (Invitrogen Corp). These mixed glial cells were prepared according to Park L C, Calingasan N Y, Uchida K, Zhang H, Gibson G E. (2000) “Metabolic impairment elicits brain cell type-selective changes in oxidative stress and cell death in culture.” J Neurochem 74(1):114-124 with some modification. Briefly, rat […] forebrains (1-2 day old) were isolated, triturated and plated on 96-well plates (20,000 cells per well) in mixed glial media in 5% CO2 incubator at 37° C. […]
The quantitative determination of TNF-αpresent in cell culture medium produced by mixed glial cells was performed using a solid phase sandwich enzyme linked immno-sorbent assay (ELISA) method based on the protocol and reagents provided by Biosource rat TNF-α ELISA kit (Biosource International).

Structure (SMILES): OC1CCN(Cc2onc(-c3ccc(F)cc3)c2-c2ccnc(NC3CCCCC3)n2)CC1 [I-1]
- IC50: ≤ 1000 nM
